Measured values reported in patent US20040043403A1, “Process for determining the biological activity of epidermal growth factor receptor tyrosine kinase inhibitors” (priority 2000, published 2004).

Legend:
Type in all cases: cell-based, human
A431 cells = test: UniGEM V cDNA array expression profile of A431 cells; conditions: 3 μM, 24 hours, RNA from Experiment 1
Method: The following tissue culture cells are chosen because of their EGFR expression status (Table 1). EGFR expression is measured by Western blotting, using anti-EGFR monoclonal antibodies from Transduction Labs (Lexington, Ky.). The cell lines are obtained from the ATCC (Rockville, […].). The cells are cultured in 5% CO2 at 37° C.
(§1) 20 million tissue culture cells (about 80% confluent) or 200 million WBCs are incubated for 2 or 24 h in culture medium containing 3 μM of an EGFR tyrosine kinase inhibitor or 0.03% DMSO. Total RNA from cell pellet is isolated using the RNeasy kit (Qiagen). mRNA is isolated using the oligotex mRNA purification kit (Qiagen). The quality of the obtained mRNA is tested by real time RT-PCR using beta-Actin primers (PE Applied Biosystems) with an amplicon size of 300 base pairs (bp). The total RNA is used as a reference to calculate the amount of mRNA-enrichment in the oligotex purified samples.
(§2) Probes for the UniGEM hybridization are synthesized by Incyte Genomics (Palo Alto, Calif., USA). For each probe 200 ng mRNA (50 ng/μl) is shipped in dry ice. The results are analyzed using the Expressionist Software Package provided by GeneData.
(§3) Expression profiles (UniGEM V arrays) of 4 tumor cell lines with different EGFR expression status (A431, NCI-H596, NCI-H520 and MDA-MB-468) and of WBCs upon exposure of cells to 3 μM of COMPOUND A for 2 or 24 h are analyzed. As control, cells treated with DMSO for the same time period are used. […] The cDNA array hybridization is repeated with the UniGEM 1 array using the same mRNA (Table 3).

NCI-H520 = test: Western blot of clusterin induction in NCI-H520 cells; conditions: NCI-H520 cells (do not express EGFR), 300 nM, 24 h, vs 0.03% DMSO
Method: An EGFR tyrosine kinase inhibitor is dissolved in DMSO to obtain a 10 mM stock solution. The stock solution is further diluted in culture medium to final concentrations of 10 nM to 3 μM. 3.5 million cells/100 mm dish/12 ml culture medium are incubated for 24 h in 5% CO2 at 37° C. The medium is replaced with medium containing the EGFR tyrosine kinase inhibitor or DMSO. Cells are incubated for 4 to 32 h. The frozen pellets are lysed in 500 μl of lysis buffer (50 mM Tris-HCl pH 7.5, 1% Sodium Dodecyl Sulfate (SDS)). To shear genomic DNA, the cell lysates are processed in a FastPrep instrument for 20 sec at a speed rating of 4, using the green […] tubes (Bio101#6040-6010). Protein concentrations are determined according to the PIERCE-method (BCA Protein Assay, Reagent A and B). Protein concentration of lysates is adjusted to 1 μg/μl with lysis buffer. 4 parts of cell lysates are mixed with 1 part of 5 fold concentrated Laemmli buffer, the lysates are stored at -20° C. 40 μl of cell lysate is heated for 3 min to 95° C. and directly loaded on to 10% or 15% SDS-PAGE gels. The gels are run at 130 V for 90 min under standard conditions. The separated proteins are semi-dry blotted on to a PVDF membrane (Immobilon-P, Millipore #IPVH 202 00) for 70 min with 45 mA per blot. […]

[1] = tested on: A431, NCI-H596, NCI-H520, MDA-MB-468 and WBCs; test: UniGEM V array 2 h expression profiles of 4 tumor cell lines and WBCs; conditions: 3 μM, cut off set at 3, vs DMSO, data not shown
Method: as §1, §2, §3

C[C@@H](Nc1ncnc2[nH]c(-c3ccc(O)cc3)cc12)c1ccccc1 [COMPOUND A, (R)-6-(4-hydroxy-phenyl)-4-[(1-phenyl-ethyl)-amino]-7H-pyrrolo[2,3-d]pyrimidine]
Gene induction, Micro Array UniGEM V: Acute phase serum amyloid A protein (A431 cells): 3.3
Gene induction, Micro Array UniGEM V: Cathepsin H (A431 cells): 2.4
Gene induction, Micro Array UniGEM V: Complement component 3 (C3) (A431 cells): 3.3
Gene induction, Micro Array UniGEM V: Complement cytolysis inibitor (Clusterin) (A431 cells): 6.6
Gene induction, Micro Array UniGEM V: DNA binding protein inhibitor ID-3 (A431 cells): 2.6
Gene induction, Micro Array UniGEM V: Extracellular protein S1-5 (A431 cells): 2.2
Gene induction, Micro Array UniGEM V: TGF-beta induced gene (A431 cells): 2.7
Gene induction, Micro Array UniGEM V: TRAIL (A431 cells): 4.0
Gene induction, Micro Array UniGEM V: VAC-beta (annexin VIII) (A431 cells): 2.2
Clusterin induction, Western blot (FIG. 4) (NCI-H520): no detectable clusterin levels
2 h expression profiles, induced and repressed genes [1]: almost no induced genes and only few repressed genes
2 h expression profiles: early growth response protein 1 [1]: repression in two cell lines and WBCs
